Laboratory results reported in ChEMBL document CHEMBL4616643, “Cytotoxic and anti-inflammatory effects of lignans and diterpenes from Cupressus macrocarpa” (Bioorg Med Chem Lett, 2020).
Values after ≈ are worked out from the molar mass of the structure shown.

Legend:
[1] = tested on: A549; assay: Antiproliferative activity against human A549 cells assessed as inhibition of cell viability by MTT assay; assay type: functional, cell-based
[2] = tested on: MDA-MB-231; assay: Antiproliferative activity against human MDA-MB-231 cells assessed as inhibition of cell viability by MTT assay; assay type: functional, cell-based
[3] = tested on: Neutrophil; assay: Anti-inflammatory activity against human neutrophils assessed as inhibition in fMLF/CB-induced elastase release at 10 uM preincubated for 5 mins followed by fMLF addition after priming with CB for 3 mins and measured after 10 mins by spectrophotometric analysis relative to control; assay type: functional
[4] = tested on: Neutrophil; assay: Anti-inflammatory activity against human neutrophils assessed as inhibition of fMLF/CB-induced superoxide anion generation at 10 uM preincubated for 5 mins followed by fMLF addition after priming with CB for 3 mins and measured after 10 mins by spectrophotometric analysis relative to control; assay type: functional
[5] = tested on: Neutrophil; assay: Anti-inflammatory activity against human neutrophils assessed as inhibition of fMLF/CB-induced superoxide anion generation preincubated for 5 mins followed by fMLF addition after priming with CB for 3 mins and measured after 10 mins by spectrophotometric analysis; assay type: functional, cell-based
[6] = tested on: HepG2; assay: Antiproliferative activity against human HepG2 cells assessed as inhibition of cell viability by MTT assay; assay type: functional, cell-based
[7] = tested on: Neutrophil; assay: Anti-inflammatory activity against human neutrophils assessed as inhibition of fMLF/CB-induced elastase release preincubated for 5 mins followed by fMLF addition after priming with CB for 3 mins and measured after 10 mins by spectrophotometric analysis; assay type: functional, cell-based
[8] = Homo sapiens, A549, read-out: IC50
[9] = Homo sapiens, MDA-MB-231, read-out: IC50
[10] = Homo sapiens, HepG2, read-out: IC50

Row | SMILES | IC50 [1, 8] | IC50 [2, 9] | inhibition at 10 µM [3] | inhibition at 10 µM [4] | further results
1 | C=C1CC[C@H]2[C@@](C)(CO)CCC[C@]2(C)[C@H]1CC/C(C)=C/CO |  |  | 22.3% | 50.7% | IC50 [5]: 9.6 µM
2 | C=C(C=O)CC[C@H]1C(=C)CC[C@@H]2[C@]1(C)CCC[C@]2(C)C(=O)O |  | 14.1 µg/mL (≈ 46.3 µM) |  |  | 
3 | C=C(CC[C@H]1C(=C)CC[C@H]2[C@@](C)(CO)CCC[C@]12C)C(=O)CO | 19.8 µg/mL (≈ 61.8 µM) | 19.9 µg/mL (≈ 62.1 µM) |  |  | 
4 | C=C(C=O)CC[C@H]1C(=C)CC[C@@H]2[C@]1(C)CCC[C@@]2(C)O |  | 14.8 µg/mL (≈ 53.5 µM) |  |  | 
5 | C=C1CC[C@@H]2[C@](C)(CO)CCC[C@@]2(C)[C@@H]1CCC(C)=O |  |  | 15.7% | 33.5% | 
6 | COc1cc([C@@H]2c3cc4c(cc3C[C@H]3COC(=O)[C@@H]32)OCO4)cc(OC)c1OC [DESOXYPODOPHYLLOTOXIN] | 0.004 µg/mL (≈ 0.01 µM) | 0.07 µg/mL (≈ 0.176 µM) |  |  | IC50 [6, 10]: 14.5 µg/mL (≈ 36.4 µM)
7 | C=C1CC[C@@H]2[C@](C)(CCC[C@]2(C)C(=O)O)[C@H]1CC/C(C)=C/CO [ISOCUPRESSIC ACID] |  |  | 19.9% | 78% | IC50 ([1]; a549): Not Active; IC50 ([2]; mda-mb-231): Not Active; IC50 ([6]; hepg2): Not Active; IC50 [5]: 4.8 µM
8 | COc1cc(C[C@H]2COC(=O)[C@@H]2Cc2ccc(O)c(OC)c2)ccc1O [MATAIRESINOL] |  |  | 61.9% | 95.2% | IC50 [6, 10]: 15.1 µg/mL (≈ 42.1 µM); IC50 [5]: 2.7 µM; IC50 [7]: 6.6 µM

Now from value to molecule, other results behind:

Row | IC50 [1, 8] | IC50 [2, 9] | SMILES | inhibition at 10 µM [3] | inhibition at 10 µM [4] | further results
9 | 8.9 µg/mL (≈ 24.6 µM) | 14.8 µg/mL (≈ 40.8 µM) | C=C1CC[C@@H]2[C@](C)(CCC[C@]2(C)C(=O)O)[C@H]1CC/C(C)=C/COC(C)=O |  |  | 
10 | 0.8 µg/mL (≈ 2.15 µM) | 1.1 µg/mL (≈ 2.95 µM) | COc1cc(C[C@H]2C(=O)OC[C@@H]2Cc2ccc(OC)c(OC)c2)ccc1O [ARCTIGENIN] |  |  | IC50 [6, 10]: 2.8 µg/mL (≈ 7.52 µM)
11 | 0.057 µg/mL (≈ 0.105 µM) | 0.6 µg/mL (≈ 1.1 µM) | COc1cccc2c1C(=O)c1c(O)c3c(c(O)c1C2=O)C[C@@](O)(C(=O)CO)C[C@@H]3O[C@H]1C[C@H](N)[C@H](O)[C@H](C)O1 [DOXORUBICIN] |  |  | 
